Measurements as given in patent US10791730B2, “Composition and methods for cryopreservation of hUTC” (DePuy Synthes Products, Inc., priority 2016, dated 2020).

Tested on: umbilical cord tissue
Assay: Isolation of cells from umbilical cord tissue using varying enzyme combinations
Type: cell-based, human
Parameters: key: + = good; ++ = very good; +++ = excellent; X = no success
Conditions: enzyme digest of umbilical cord tissue
Description: Umbilical cords were obtained from National Disease Research Interchange (NDRI, Philadelphia, Pa.). The tissues were obtained following normal deliveries. The cell isolation protocols were performed aseptically in a laminar flow hood. To remove blood and debris, the cord was washed in phosphate buffered saline (PBS; Invitrogen, Carlsbad, Calif.) in the presence of penicillin at 100 U/ml, streptomycin at […] and amphotericin B at 0.25 μg/ml (Invitrogen Carlsbad, Calif.). The tissues were then mechanically dissociated in 150 cm^2 tissue culture plates in the presence of 50 ml of medium (DMEM-low glucose or DMEM-high glucose; Invitrogen) until the tissue was minced into a fine pulp. The chopped tissues were transferred to 50 ml conical tubes (approximately 5 g of tissue per tube).
The tissue was then digested in either DMEM-low glucose medium or DMEM-high glucose medium, each containing penicillin at 100 U/ml, streptomycin at […], amphotericin B at 0.25 μg/ml and the digestion enzymes. In some experiments an enzyme mixture of collagenase and dispase was used (“C:D”) (collagenase (Sigma, St Louis, Mo.), 500 U/ml; and dispase (Invitrogen), 50 U/ml, in DMEM-Low glucose medium). In other experiments a mixture of collagenase, dispase and hyaluronidase (“C:D:H”) was used (C:D:H=collagenase, 500 U/ml; dispase, 50 U/ml; and hyaluronidase (Sigma), 5 U/ml, in DMEM-Low glucose). The conical tubes containing the tissue, medium and digestion enzymes were incubated at 37° C. in an orbital shaker (Environ, Brooklyn, N.Y.) at 225 rpm for 2 hours.
After digestion, the tissues were centrifuged at 150×g for 5 minutes, the supernatant was aspirated. The pellet was resuspended in 20 ml of growth medium (DMEM:Low glucose (Invitrogen), 15% (v/v) fetal bovine serum (FBS; defined fetal bovine serum; Lot #AND18475; Hyclone, Logan, Utah), 0.001% (v/v) 2-mercaptoethanol (Sigma), penicillin at 100 U/ml, streptomycin at 100 μg/ml, and amphotericin B at 0.25 μg/ml (each from Invitrogen, Carlsbad, Calif.)). The cell suspension was filtered through a 70 μm nylon BD FALCON Cell Strainer (BD Biosciences, San Jose, Calif.). An additional 5 ml rinse comprising growth medium was passed through the strainer. The cell suspension was then passed through a 40-μm nylon cell strainer (BD Biosciences, San Jose, Calif.) and chased with a rinse of an additional 5 ml of growth medium.
The filtrate was resuspended in growth medium (total volume 50 ml) and centrifuged at 150×g for 5 minutes. The supernatant was aspirated and the cells were resuspended in 50 ml of fresh growth medium. […]
After the final centrifugation, supernatant was aspirated and the cell pellet was resuspended in 5 ml of fresh growth medium. The number of viable cells was determined using trypan blue staining. […]

Row | Substance | Cell Expansion | Cells Isolated
1 | Collagenase | X | X
2 | Hyaluronidase | X | X
